# Patent publication US6974870B2, “Substituted 3-amino-thieno [2,3-b]pyridine-2-carboxylic acid amide compounds and processes for preparing and their uses” (Boehringer Ingelheim Phamaceuticals, Inc., priority 2002, dated 2005)
# pIC50: −log10 of the molar value.
# Molecular target: T1, human IKKβ (Homo sapiens, UniProt O14920)
# T1 construct: FLAG (N)
# T1 sequence (O14920 1-756): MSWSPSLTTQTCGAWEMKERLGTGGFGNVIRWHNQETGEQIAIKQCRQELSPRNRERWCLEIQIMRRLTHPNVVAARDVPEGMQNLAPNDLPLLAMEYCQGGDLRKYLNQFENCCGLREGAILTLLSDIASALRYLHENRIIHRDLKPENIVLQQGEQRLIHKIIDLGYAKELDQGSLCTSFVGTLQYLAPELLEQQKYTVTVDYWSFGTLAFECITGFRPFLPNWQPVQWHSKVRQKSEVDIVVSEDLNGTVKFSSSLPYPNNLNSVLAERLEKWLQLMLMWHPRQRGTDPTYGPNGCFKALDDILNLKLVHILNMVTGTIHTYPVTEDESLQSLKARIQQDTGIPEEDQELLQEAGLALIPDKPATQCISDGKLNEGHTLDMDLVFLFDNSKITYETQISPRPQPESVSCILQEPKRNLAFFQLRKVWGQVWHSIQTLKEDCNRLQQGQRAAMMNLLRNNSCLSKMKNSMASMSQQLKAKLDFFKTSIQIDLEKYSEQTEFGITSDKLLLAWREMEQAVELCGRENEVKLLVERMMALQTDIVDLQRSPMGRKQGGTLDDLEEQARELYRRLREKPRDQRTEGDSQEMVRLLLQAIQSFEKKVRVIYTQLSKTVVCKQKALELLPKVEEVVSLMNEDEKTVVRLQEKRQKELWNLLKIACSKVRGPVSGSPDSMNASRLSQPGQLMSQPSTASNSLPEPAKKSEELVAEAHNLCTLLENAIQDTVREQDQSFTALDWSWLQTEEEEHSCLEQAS
# Assay: IKKβ kinase inhibition assay (phosphorylation of IκBα substrate, 33P-ATP)
# Type: biochemical
# Conditions: flag-tagged human IKKβ 0.9 μg/ml, GST-IκBα (1-54) 53 μg/ml, 250 nM ATP, 1 hour at 25° C.
# Experimental: The inhibition of IKKα and IKKβ by the compounds of the present invention was determined with the following assay that measures the phosphorylation of the IκBα substrate by the respective kinases. The enzymes used in the assay were N-terminally flag-tagged versions of the human IKKβ or IKKα and the substrate was a GST fusion protein with IκBα (amino acids 1-54).
# The reaction mixtures (60 μl) contained 20 mM HEPES pH 7.5, 10 mM MgCl2, 2 mM MnCl2, 100 mM NaCl, 100 μM Na3VO4, 20 mM β-glycerophosphate, 1 mM DTT, 2% DMSO, 250 nM ATP, 0.4 nM [^33P]ATP (specific activity, 3000 Ci/mmol), IκBα substrate, IKK enzyme and test compound. The reaction mixtures contained either 3.6 μg/ml IKKα and 245 μg/ml IκBα or 0.9 μg/ml IKKβ and 53 μg/ml IκBα.
# Reactions were initiated by adding a solution of IκBα substrate and ATP to polypropylene plates containing IKK enzyme that was pre-incubated for 5 minutes with test compound. Then the reaction mixtures were incubated for 1 hour at 25° C., placed on ice and quenched by the addition of 150 μl 10% trichloroacetic acid and 5% disodium pyrophosphate. After mixing, the entire contents of the quenched reaction mixtures were transferred to a pre-wetted Packard UniFilter filtration plate, aspirated and washed 6 times with 250 μl of ddH2O using the Packard Filtermate Harvester. Filtration plates were then air dried, supplemented with 40 μl of Microscint 20 scintillation fluid and the ^33P-labeled reaction products were quantified using the Packard TopCount scintillation counter.
# Compounds were tested in three-fold serial dilutions and inhibitor concentrations to achieve 50% inhibition of enzyme activity (i.e., IC50) were derived from dose-reponse curves using SAS software (SAS Institute, Cary N.C.). A non-linear regression analysis based on the Hill equation was applied to the percent inhibition versus concentration data. In all cases, compound concentrations were verified by HPLC.
row,SMILES,pIC50
1,"CCCc1cc(N2CCC(NCC(O)c3ccc(-c4cnccn4)cc3)CC2)nc2sc(C(N)=O)c(N)c12 (stereo not shown) [3-Amino-6-{4-[2-hydroxy-2-(4-pyrazin-2-yl-phenyl)-ethylamino]-piperidin-1-yl}-4-propyl-thieno[2,3-b] pyridine-2-carboxylic acid amide]",> 6.00
2,"CCCc1cc(N2CCC(NCC(O)COc3ccc(C(F)(F)F)cc3)CC2)nc2sc(C(N)=O)c(N)c12 (stereo not shown) [3-Amino-6-{4-[2-hydroxy-3-(4-trifluoromethyl-phenoxy)-propylamino]-piperidin-1-yl}-4-propyl-thieno[2,3-b] pyridine-2-carboxylic acid amide]",> 6.00
3,"CCCc1cc(N2CCC(NCC(O)c3ccc(-c4ccccn4)cc3)CC2)nc2sc(C(N)=O)c(N)c12 (stereo not shown) [3-Amino-6-{4-[2-hydroxy-2-(4-pyridin-2-yl-phenyl)-ethylamino]-piperidin-1-yl}-4-propyl-thieno[2,3-b] pyridine-2-carboxylic acid amide]",> 6.00
4,"NC(=O)c1sc2nc(N3CCC(NCC(O)c4ccc(-c5ccccn5)cc4)CC3)cc(C(F)(F)F)c2c1N (stereo not shown) [3-Amino-6-{4-[2-hydroxy-2-(4-pyridin-2-yl-phenyl)-ethylamino]-piperidin-1-yl}-4-trifluoromethyl-thieno[2,3-b]pyridine-2-carboxylic acid amide]",> 6.00
5,"CCCc1cc(N2CCC(NCC(O)c3cccc(-c4ccccn4)c3)CC2)nc2sc(C(N)=O)c(N)c12 (stereo not shown) [3-Amino-6-{4-[2-hydroxy-2-(3-pyridin-2-yl-phenyl)-ethylamino]-piperidin-1-yl}-4-propyl-thieno[2,3-b] pyridine-2-carboxylic acid amide]",> 6.00
6,"CCCc1cc(N2CCC(NCCc3ccc(C(N)=O)cc3)CC2)nc2sc(C(N)=O)c(N)c12 [3-Amino-6-{4-[2-(4-carbamoyl-phenyl)-ethylamino]-piperidin-1-yl}-4-propyl-thieno[2,3-b] pyridine-2-carboxylic acid amide]",> 6.00
7,CCCc1cc(N2CCC(NCC(=O)Nc3cnc4ccccc4c3)CC2)nc2sc(C(N)=O)c(N)c12,> 6.00
8,"NC(=O)c1sc2nc(N3CCC(NCC(O)c4ccc(-c5cccnc5)cc4)CC3)cc(C(F)(F)F)c2c1N (stereo not shown) [3-Amino-6-{4-[2-hydroxy-2-(4-pyridin-3-yl-phenyl)-ethylamino]-piperidin-1-yl}-4-trifluoromethyl-thieno[2,3-b]pyridine-2-carboxylic acid amide]",> 6.00
9,"NC(=O)c1sc2nc(N3CCC(NCC(O)c4ccc(-c5ccccc5)cc4)CC3)cc(C(F)(F)F)c2c1N (stereo not shown) [3-Amino-6-[4-(2-biphenyl-4-yl-2-hydroxy-ethylamino)-piperidin-1-yl]-4-trifluoromethyl-thieno[2,3-b]pyridine-2-carboxylic acid amide]",> 6.00
10,"CCCc1cc(N2CCC(NCC(O)c3ccc(-c4ccncc4)cc3)CC2)nc2sc(C(N)=O)c(N)c12 (stereo not shown) [3-Amino-6-{4-[2-hydroxy-2-(4-pyridin-4-yl-phenyl)-ethylamino]-piperidin-1-yl}-4-propyl-thieno[2,3-b] pyridine-2-carboxylic acid amide]",> 6.00
11,"NC(=O)c1sc2nc(N3CCC(NCC(O)c4ccc(-c5ccncc5)cc4)CC3)cc(C(F)(F)F)c2c1N (stereo not shown) [3-Amino-6-{4-[2-hydroxy-2-(4-pyridin-4-yl-phenyl)-ethylamino]-piperidin-1-yl}-4-trifluoromethyl-thieno[2,3-b]pyridine-2-carboxylic acid amide]",> 6.00
12,"NC(=O)c1sc2nc(N3CCC(NCCO)CC3)cc(C(F)(F)F)c2c1N [3-Amino-6-[4-(2-hydroxy-ethylamino)-piperidin-1-yl]-4-trifluoromethyl-thieno[2,3-b]pyridine-2-carboxylic acid amide]",> 6.00
13,"CCCc1cc(N2CCC(NCC(O)c3ccc(-c4cncnc4)cc3)CC2)nc2sc(C(N)=O)c(N)c12 (stereo not shown) [3-Amino-6-{4-[2-hydroxy-2-(4-pyrimidin-5-yl-phenyl)-ethylamino]-piperidin-1-yl}-4-propyl-thieno[2,3-b] pyridine-2-carboxylic acid amide]",> 6.00

# Second part, the compound after the results:
row,pIC50,SMILES
1,> 6.00,"CCCc1cc(N2CCC(NC[C@@H](O)COc3ccccc3)CC2)nc2sc(C(N)=O)c(N)c12 [3-Amino-6-[4-((R)-2-hydroxy-3-phenoxy-propylamino)-piperidin-1-yl]-4-propyl-thieno[2,3-b] pyridine-2-carboxylic acid amide]"
2,> 6.00,"CCCc1cc(N2CCC(NCC(O)COc3cccc(C#N)c3)CC2)nc2sc(C(N)=O)c(N)c12 (stereo not shown) [3-Amino-6-{4-[3-(3-cyano-phenoxy)-2-hydroxy-propylamino]-piperidin-1-yl}-4-propyl-thieno[2,3-b] pyridine-2-carboxylic acid amide]"
3,> 6.00,"CCCc1cc(N2CCC(NCC(O)C(=O)NCc3ccccc3)CC2)nc2sc(C(N)=O)c(N)c12 (stereo not shown) [3-Amino-6-[4-(2-benzylcarbamoyl-2-hydroxy-ethylamino)-piperidin-1-yl]-4-propyl-thieno[2,3-b] pyridine-2-carboxylic acid amide]"
4,> 6.00,"CCCc1cc(N2CCC(NCC(O)CNc3cccc(C(N)=O)c3)CC2)nc2sc(C(N)=O)c(N)c12 (stereo not shown) [3-Amino-6-{4-[3-(3-carbamoyl-phenylamino)-2-hydroxy-propylamino]-piperidin-1-yl}-4-propyl-thieno[2,3-b] pyridine-2-carboxylic acid amide]"
5,> 6.00,"CCCc1cc(N2CCC(NCC(O)COc3cccc4ccccc34)CC2)nc2sc(C(N)=O)c(N)c12 (stereo not shown) [3-Amino-6-{4-[2-hydroxy-3-(naphthalen-1-yloxy)-propylamino]-piperidin-1-yl}-4-propyl-thieno[2,3-b] pyridine-2-carboxylic acid amide]"
6,> 6.00,"CCCc1cc(N2CCC(NCC(O)COc3ccc4ccccc4c3)CC2)nc2sc(C(N)=O)c(N)c12 (stereo not shown) [3-Amino-6-{4-[2-hydroxy-3-(naphthalen-2-yloxy)-propylamino]-piperidin-1-yl}-4-propyl-thieno[2,3-b] pyridine-2-carboxylic acid amide]"
7,> 6.00,"CCCc1cc(N2CCC(NCC(O)CNc3ccccc3)CC2)nc2sc(C(N)=O)c(N)c12 (stereo not shown) [3-Amino-6-[4-(2-hydroxy-3-phenylamino-propylamino)-piperidin-1-yl]-4-propyl-thieno[2,3-b] pyridine-2-carboxylic acid amide]"
8,> 6.00,"CCCc1cc(N2CCC(NCC(O)CCc3ccccc3)CC2)nc2sc(C(N)=O)c(N)c12 (stereo not shown) [3-Amino-6-[4-(2-hydroxy-4-phenyl-butylamino)-piperidin-1-yl]-4-propyl-thieno[2,3-b] pyridine-2-carboxylic acid amide]"
9,> 6.00,"CCCc1cc(N2CCC(NCC(O)COCc3ccccc3)CC2)nc2sc(C(N)=O)c(N)c12 (stereo not shown) [3-Amino-6-[4-(3-benzyloxy-2-hydroxy-propylamino)-piperidin-1-yl]-4-propyl-thieno[2,3-b] pyridine-2-carboxylic acid amide]"
10,> 6.00,"CCCc1cc(N2CCC(NCC(O)COc3cccc(OC)c3)CC2)nc2sc(C(N)=O)c(N)c12 (stereo not shown) [3-Amino-6-{4-[2-hydroxy-3-(3-methoxy-phenoxy)-propylamino]-piperidin-1-yl}-4-propyl-thieno[2,3-b] pyridine-2-carboxylic acid amide]"
11,> 6.00,"CCCc1cc(N2CCC(NCC(O)c3ccc(-c4ccccc4)cc3)CC2)nc2sc(C(N)=O)c(N)c12 (stereo not shown) [3-Amino-6-[4-(2-biphenyl-4-yl-2-hydroxy-ethylamino)-piperidin-1-yl]-4-propyl-thieno[2,3-b] pyridine-2-carboxylic acid amide]"
12,> 6.00,"CCCc1cc(N2CCC(NC[C@H](O)COc3ccccc3)CC2)nc2sc(C(N)=O)c(N)c12 [3-Amino-6-[4-((S)-2-hydroxy-3-phenoxy-propylamino)-piperidin-1-yl]-4-propyl-thieno[2,3-b] pyridine-2-carboxylic acid amide]"
